For data set [1], the system named is MC-38. As to the kind of experiment: Immunomodulatory activity in mouse MC38 cells xenografted in C57/BL mouse assessed as increase in infiltration of CD8-positive T cells at 40 mg/kg, ip administered every other day from day 6 post implantation by DAPI staining based immunofluorescence microscopy. Type of data set: functional, organism-based.
Data set [2] in a line: Toxicity in mouse MC38 cells xenografted C57/BL mouse assessed as change in body weight at 40 mg/kg, ip administered every other day from day 6 post implantation measured every 2 days. Type of data set: organism-based. As to conditions: in vivo, 48 h.
In data set [3] the test system is MDA-MB-231. As to the kind of experiment: Immunomodulatory activity in human CFDA SE-labelled MDA-MB-231 cells cocultured with PMBC assessed as induction of PBMC recruitment to MDA-MB-231 cells by measuring late apoptotic cells at 20 uM incubated for 48 hrs by propidium iodide staining based flow cytometry analysis (reference value: 0 %). The format is functional.

Data set [4] relates to MDA-MB-231. The experiment in a line: Immunomodulatory activity in human MDA-MB-231 cells cocultured with human PBMC assessed as induction of PBMC recruitment to MDA-MB-231 cells by measuring increase in activated caspase-3 at 20 uM incubated for 24 hrs by GrennNuc caspase-3 substrate based assay. The format is functional, cell-based.
Data set [5] relates to MDA-MB-231. The experiment in a line: Immunomodulatory activity in human CFDA SE-labelled MDA-MB-231 cells cocultured with PMBC assessed as induction of PBMC recruitment to MDA-MB-231 cells by measuring viable cells at 20 uM incubated for 48 hrs by propidium iodide staining based flow cytometry analysis (reference value: 99.87 %). Type of data set: functional. On the technique in general: In flow cytometry, cells or beads pass a laser one at a time.

Data set [6] has as its system MC-38. The experiment in a line: Immunomodulatory activity in mouse MC38 cells xenografted in C57/BL mouse assessed as increase in infiltration of CD3-positive T cells at 40 mg/kg, ip administered every other day from day 6 post implantation by DAPI staining based immunofluorescence microscopy. Type of data set: functional, organism-based.
Data set [7] relates to MC-38. The experiment in a line: Immunomodulatory activity in mouse MC38 cells xenografted in C57/BL mouse assessed as increase in perforin at 40 mg/kg, ip administered every other day from day 6 post implantation by hematoxylin staining based immunohistochemical analysis. Type of data set: functional, organism-based.
In data set [8] the test system is MC-38. The experiment in a line: Immunomodulatory activity in mouse MC38 cells xenografted in C57/BL mouse assessed as increase in granzyme B at 40 mg/kg, ip administered every other day from day 6 post implantation by hematoxylin staining based immunohistochemical analysis. Type of data set: functional, organism-based.
The subject of data set [9] is MDA-MB-231. As to the kind of experiment: Immunomodulatory activity in human CFDA SE-labelled MDA-MB-231 cells cocultured with PMBC assessed as induction of PBMC recruitment to MDA-MB-231 cells by measuring early apoptotic cells at 20 uM incubated for 48 hrs by propidium iodide staining based flow cytometry analysis (reference value: 0 %). Type of data set: functional.

The nature of data set [10]: Toxicity in mouse MC38 cells xenografted C57/BL mouse assessed as death at 40 mg/kg, ip administered every other day from day 6 post implantation measured on day 14. Type of data set: organism-based. As to conditions: in vivo, time 14 day, read-out: Activity.
For data set [11], the system named is MC-38. The experiment in a line: Induction of immune response mediated antitumor activity in mouse MC38 cells xenografted in C57/BL mouse assessed as tumor growth inhibition at 40 mg/kg, ip administered every other day from day 6 post implantation measured every 2 days. The format is functional, organism-based.
In data set [12] the test system is MDA-MB-231. The experiment in a line: Immunomodulatory activity in human CFDA SE-labelled MDA-MB-231 cells cocultured with PMBC assessed as induction of PBMC recruitment to MDA-MB-231 cells by measuring necrotic cell at 20 uM incubated for 48 hrs by propidium iodide staining based flow cytometry analysis (reference value: 0.13 %). The format is functional.
The nature of data set [13]: Induction of immune response mediated antitumor activity in mouse B16F10 cells xenografted in C57/BL mouse assessed as reduction in tumor weight at 40 mg/kg, ip administered every other day from day 6 post implantation measured every 2 days relative to control. Type of data set: functional, B16-F10. Set-up: scale not given: the % may be the effect or the level left.

Data set [14] is described as follows: Induction of immune response mediated antitumor activity in mouse B16F10 cells xenografted in C57/BL mouse assessed as infiltration of CD8 cells at 40 mg/kg, ip administered every other day from day 6 post implantation by flow cytometry (reference value: 26.9 %). Type of data set: functional, B16-F10.
Data set [15] concerns the target Programmed cell death 1 ligand 1 (Homo sapiens, UniProt Q9NZQ7). The experiment in a line: Binding affinity to PDL1 (unknown origin) by SPR analysis.
Data set [16] has as its system MDA-MB-231. The experiment in a line: Immunomodulatory activity in human MDA-MB-231 cells expressing luciferase assessed as induction of PBMC-induced cell death incubated for 72 hrs by LDH assay. The format is functional, cell-based. As to conditions: dose microM 0.313-80, time 72.0 hrs.
The target in data set [17] is T1, Programmed cell death protein 1/Programmed cell death 1 ligand 1 (Homo sapiens, UniProt Q9NZQ7). As to the kind of experiment: Inhibition of PD1-Tag2/PD-L1-Tag1 (unknown origin) protein-protein interaction preincubated for 15 mins followed by addition of anti-Tag1-Eu3+ and anti-Tag2-XL665 measured after 3 hrs by HTRF assay. Type of data set: protein-complex assay. Background: TR-FRET usually uses a lanthanide donor and a delayed reading to cut background.
T1 sequence (Q15116 whole entry): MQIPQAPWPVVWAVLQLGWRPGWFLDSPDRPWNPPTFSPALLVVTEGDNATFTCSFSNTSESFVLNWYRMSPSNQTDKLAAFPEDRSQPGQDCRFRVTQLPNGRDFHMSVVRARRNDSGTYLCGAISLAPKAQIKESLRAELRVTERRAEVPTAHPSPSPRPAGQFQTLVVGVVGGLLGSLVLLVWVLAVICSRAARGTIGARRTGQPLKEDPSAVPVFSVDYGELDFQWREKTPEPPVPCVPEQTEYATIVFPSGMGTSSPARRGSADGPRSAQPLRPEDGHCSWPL
T1 sequence (Q9NZQ7 whole entry): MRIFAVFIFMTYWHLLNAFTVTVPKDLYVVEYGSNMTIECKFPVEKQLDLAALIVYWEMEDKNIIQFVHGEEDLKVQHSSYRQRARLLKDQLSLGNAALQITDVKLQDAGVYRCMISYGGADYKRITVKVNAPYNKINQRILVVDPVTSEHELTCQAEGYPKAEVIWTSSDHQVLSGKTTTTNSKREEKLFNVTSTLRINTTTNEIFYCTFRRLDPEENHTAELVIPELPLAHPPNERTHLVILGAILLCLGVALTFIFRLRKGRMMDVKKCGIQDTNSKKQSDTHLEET

Data set [18] is described as follows: Induction of immune response mediated antitumor activity in mouse B16F10 cells xenografted in C57/BL mouse assessed as infiltration of CD3 cells at 40 mg/kg, ip administered every other day from day 6 post implantation by flow cytometry (reference value: 1.45 %). Type of data set: functional, B16-F10.
Data set [19] is described as follows: Induction of apoptosis in human PBMC cells assessed as activated caspase-3 at 20 uM incubated for 24 hrs by GrennNuc caspase-3 substrate based assay. The format is cell-based.
The target in data set [20] is Programmed cell death protein 1/Programmed cell death 1 ligand 1 (Homo sapiens) (UniProt Q15116+Q9NZQ7). As to the kind of experiment: Inhibition of PD1-Tag2/PD-L1-Tag1 (unknown origin) protein-protein interaction at 20 uM preincubated for 15 mins followed by addition of anti-Tag1-Eu3+ and anti-Tag2-XL665 measured after 3 hrs by HTRF assay relative to control. Type of data set: protein-complex assay. As to conditions: time 195.0 min.

In data set [21] the test system is B16-F10. The experiment in a line: Toxicity in mouse B16F10 cells xenografted C57/BL mouse assessed as change in body weight at 40 mg/kg, ip administered every other day from day 6 post implantation measured every 2 days. As to conditions: in vivo, 48 h. The format is organism-based.
A short description of data set [22]: Induction of immune response mediated antitumor activity in mouse B16F10 cells xenografted in C57/BL mouse assessed as infiltration of CD45 cells at 40 mg/kg, ip administered every other day from day 6 post implantation by flow cytometry (reference value: 1.81 %). Type of data set: functional, B16-F10.
Data set [23] addresses T1, Programmed cell death protein 1/Programmed cell death 1 ligand 1. The experiment in a line: Inhibition of FC-tagged PD1/His-tagged PD-L1 (unknown origin) protein-proteiinteraction incubated for 3 hrs by coimmunoprecipitation-based Western blot assay. The format is protein-complex assay. A general note: In western blotting, separated proteins are transferred to a membrane and probed.

In data set [24] the test system is B16-F10. As to the kind of experiment: Induction of immune response mediated antitumor activity in mouse B16F10 cells xenografted in C57/BL mouse assessed as change in ratio of CD8+/CD3+ cells at 40 mg/kg, ip administered every other day from day 6 post implantation by flow cytometry. Type of data set: functional, organism-based.
In data set [25] the test system is B16-F10. As to the kind of experiment: Induction of immune response mediated antitumor activity in mouse B16F10 cells xenografted in C57/BL mouse assessed as change in ratio of CD3+/CD45+ cells at 40 mg/kg, ip administered every other day from day 6 post implantation by flow cytometry. The format is functional, organism-based.
In data set [26] the test system is MDA-MB-231. As to the kind of experiment: Cytotoxicity against human MDA-MB-231 cells expressing luciferase assessed as reduction in cell viability at 0.312 to 80 uM incubated for 72 hrs by tecan-plate reader based luciferase assay. As to conditions: mda-mb-231, 72 h, dose 0.312-80 µM.
Data set [27] concerns MDA-MB-231. As to the kind of experiment: Cytotoxicity against human MDA-MB-231 cells assessed as reduction in cell viability at 0.312 to 80 uM incubated for 72 hrs by MTT assay. As to conditions: mda-mb-231, 72 h, dose 0.312-80 µM. The format is cell-based.
For data set [28], the system named is MDA-MB-231. The experiment in a line: Immunomodulatory activity in human MDA-MB-231 cells expressing luciferase assessed as induction of PBMC-induced cell death incubated for 72 hrs by tecan-plate reader based luciferase assay. As to conditions: dose microM 0.313-80, time 72.0 hrs. The format is functional.
A short description of data set [29]: Induction of immune response mediated antitumor activity in mouse B16F10 cells xenografted in C57/BL mouse assessed as reduction in tumor volume at 40 mg/kg, ip administered every other day from day 6 post implantation measured every 2 days relative to control. Set-up: scale not given: the % may be the effect or the level left. The format is functional, B16-F10.

For data set [30], the target named is Programmed cell death protein 1 (Homo sapiens, UniProt Q15116). As to the kind of experiment: Binding affinity to PD1 (unknown origin) by SPR analysis.
Programmed cell death protein 1, sequence (Q15116 whole entry): as the sequence (Q15116 whole entry) above
The subject of data set [31] is MDA-MB-231. The experiment in a line: Induction of apoptosis in human MDA-MB-231 cells assessed as activated caspase-3 at 20 uM incubated for 24 hrs by GrennNuc caspase-3 substrate based assay. The format is cell-based. As to conditions: mda-mb-231, 24 h.
The test system of data set [32] is MDA-MB-231. The experiment in a line: Immunomodulatory activity in human MDA-MB-231 cocultured with PMBC assessed as induction of PBMC recruitment to MDA-MB-231 cells by measuring increase in cell cluster at 20 uM incubated for 12 to 48 hrs by EVOS FL digital microscopic analysis. The format is functional, cell-based. As to conditions: time hrs 12-48.
Data set [33] deals with B16-F10. As to the kind of experiment: Induction of immune response mediated antitumor activity in mouse B16F10 cells xenografted in C57/BL mouse coadministered with anti-CD8 antibody assessed as suppression of tumor growth at 40 mg/kg, ip administered every other day from day 6 post implantation measured every 2 days. Type of data set: functional, organism-based.

The source made the active and inactive calls. The calls are words filed in the database; no cut-off is given here.

Programmed cell death 1 ligand 1, sequence (Q9NZQ7 whole entry): as the sequence (Q9NZQ7 whole entry) above

`Cc1c(COc2ccc(CN3CCCCC3C(=O)O)cc2Br)cccc1-c1ccccc1` (centres undefined): the outcome in data set [1], in data set [4], in [6], in data set [7] and in data set [8] was Active. For the same compound, the Activity result was “Toxic” in [2]; 44.69% in data set [3]; 0.31% in [5]; 55% in data set [9]; 0% in data set [12]. Besides, the mortality at 336 h in data set [10] was determined as 75%. The TGI result in data set [11] is “Active”.
Regarding `CC(NCCCC[C@@H]1NC(=O)[C@@H](Cc2ccccc2)NC(=O)[C@H](CC(C)C)NC(=O)[C@H](CC(=O)O)NC(=O)[C@H]([C@@H](C)O)NC(=O)[C@@H]2CCCN2C(=O)[C@@H](Cc2c[nH]c3ccccc23)NC(=O)[C@H](CC(C)C)NC(=O)[C@H](CCCNC(=N)N)NC(=O)[C@H](C(C)C)NC1=O)=C1C(=O)CC(C)(C)CC1=O`, the Activity is 64.9% in data set [13]; 36.5% in data set [14]; “Dose-dependent effect” in data set [16]; 5.21% in [18]; “Non-Toxic” in data set [19]; “Non-Toxic” in [21]. Also, the Activity result is on record as “Non-Toxic” in data set [2]; 13.3% in data set [22]; 57.03% in data set [3]; 0.46% in data set [5]; “Non-Toxic” in data set [26]; “Non-Toxic” in [27]. Besides, the Activity in [9] was 42.33%; in [28] it was “Dose-dependent effect”; in data set [29] it was 54.8%; in data set [31], “Non-Toxic”; in data set [12], 0%. Besides, the Kd – broadly, the concentration at which binding is half-saturated – in data set [15] was 5.67 µM; in data set [30] it was 1660 µM. In addition, the result in data set [1], in data set [4], in data set [6], in data set [7], in data set [8] and in data set [32] was Active. In addition, the IC50 (commonly the concentration that gives 50% inhibition) was found to be 1.42 µM in data set [17] and 0.45 µM in [23]. In [20], the inhibition (in general, the share of the control response that was lost under treatment) worked out at 95.8%. Also, the outcome in data set [24], in data set [25] and in data set [33] was inactive. The TGI entry in [11] was “Active”.

These data come from ChEMBL document CHEMBL4665770, “Design and Discovery of Natural Cyclopeptide Skeleton Based Programmed Death Ligand 1 Inhibitor as Immune Modulator for Cancer Therapy” (J Med Chem, 2020).
